Results published in US7501430B2 (ArQule, Inc., priority 2006, dated 2009).
Like-named read-outs stand apart in the source and are kept apart here.

Molecular target: T1, mutant B-RAF (Homo sapiens, UniProt P15056, V600E)
T1 construct: purchased Upstate (Charlottesville, Va.)
Test: RAF biochemical assay (MEK-1 phosphorylation, anti-phospho MEK1/2 detection)
Details: for inhibition at 10 µM: read-out: Mutant B-RAF % inhibition
Procedure: Materials: The RAF kinases and the anti-phospho MEK1/2 antibody were from Upstate (Charlottesville, Va.). The RAF substrate used was full length N-terminal GST-MEK-1, which was expressed in E. coli and purified in-house by HPLC. All proteins were aliquoted and stored at −80° C.
Compounds were serially diluted in assay buffer containing 1% DMSO and 20 μL of test compound at a concentration 3-fold more than the final concentration, and were added to a polypropylene V-well reaction plate. Vehicle control wells received buffer only with DMSO at equivalent concentrations to the test wells. […] These reaction plates were incubated at room temperature for 30 minutes. Capture of MEK-1 was initiated by transferring 50 μl of the reaction mixture to a Nunc Maxisorp™ microplate that is designed for non-specific protein capture. After 30 minute capture of MEK-1 at room temperature, this plate was washed with TBST (6×200 μL/well) to fully terminate the reaction. The plate was then blocked for 1 hour by the addition of 100 μl/well of Superblock™ in phosphate buffered saline (PBS) blocking reagent. Plate was again washed with TBST (6 times with 200 μL/well), followed by the addition of 70 μL/well of Upstate anti-phospho MEK 1/2 diluted 1:1000 in Pierce Superblock (PBS). After a 60 minute incubation, this plate was washed with TBST (6 times with 200 μL/well), and 70 μL of the secondary antibody (Pierce Alkaline Phosphatase tagged goat anti-rabbit) prepared at 1:4000 in Superblock, were added. After a 45 minute incubation at room temperature, the wells of the microplate were washed with TBST (6 times with 200 μL/well), and thereafter 100 μl/well of Attophos™ fluorescent alkaline phosphatase substrate was added according to the manufacturer's instructions (JBL Scientific).

T1 sequence (P15056 whole entry V600E): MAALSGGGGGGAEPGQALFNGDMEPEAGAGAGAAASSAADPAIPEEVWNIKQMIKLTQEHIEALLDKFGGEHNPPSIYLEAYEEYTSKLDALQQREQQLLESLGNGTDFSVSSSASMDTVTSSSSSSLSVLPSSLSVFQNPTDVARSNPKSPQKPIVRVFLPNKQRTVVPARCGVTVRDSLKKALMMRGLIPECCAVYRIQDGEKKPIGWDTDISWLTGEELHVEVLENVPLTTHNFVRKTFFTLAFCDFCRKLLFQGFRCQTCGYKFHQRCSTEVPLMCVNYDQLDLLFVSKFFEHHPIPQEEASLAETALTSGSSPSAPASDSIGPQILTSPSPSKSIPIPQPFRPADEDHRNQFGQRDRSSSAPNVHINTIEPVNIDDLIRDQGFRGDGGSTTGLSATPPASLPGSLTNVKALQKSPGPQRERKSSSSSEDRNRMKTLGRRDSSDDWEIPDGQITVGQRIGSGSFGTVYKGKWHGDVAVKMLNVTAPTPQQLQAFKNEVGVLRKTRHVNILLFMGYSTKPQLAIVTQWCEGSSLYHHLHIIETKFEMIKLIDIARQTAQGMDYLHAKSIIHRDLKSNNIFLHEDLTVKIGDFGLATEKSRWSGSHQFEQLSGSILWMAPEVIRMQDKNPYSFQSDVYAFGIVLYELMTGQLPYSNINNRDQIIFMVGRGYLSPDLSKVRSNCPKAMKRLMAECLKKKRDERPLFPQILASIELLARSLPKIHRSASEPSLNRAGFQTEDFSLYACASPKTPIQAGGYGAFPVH

Row | Structure (SMILES) | IC50 (read-out: Mutant B-RAF IC50) | further results
1 | OC[C@H](O)CN1CCC[C@@H](Nc2nccc(-c3c(-c4cccc(O)c4)nc4sccn34)n2)C1 [Example 148, (2R)-3-[(3R)-3-({4-[6-(3-hydroxyphenyl)imidazo[2,1-b][1,3]thiazol-5-yl]pyrimidin-2-yl}amino)piperidin-1-yl]propane-1,2-diol] | > 3000 nM | 
2 | CC(=O)NC(CO)C(=O)N1CCC(Nc2nccc(-c3c(-c4ccc(F)cc4)nc4occn34)n2)CC1 (stereo not shown) [Example 212, N-[2-[4-({4-[6-(4-fluorophenyl)imidazo[2,1-b][1,3]oxazol-5-yl]pyrimidin-2-yl}amino)piperidin-1-yl]-1-(hydroxymethyl)-2-oxoethyl]acetamide] |  | inhibition at 10 µM (@ 10 uM): 43%
3 | O=S(=O)(c1ccc(Cl)cc1)N1CC[C@@H](Nc2nccc(-c3c(-c4ccc(F)cc4)nc4sccn34)n2)C1 [Example 278, N-{(3R)-1-[(4-chlorophenyl)sulfonyl]pyrro-lidin-3-yl}-4-[6-(4-fluorophenyl)imidazo[2,1-b][1,3]thiazol-5-yl]pyrimidin-2-amine] |  | inhibition at 10 µM (@ 10 uM): 10%
4 | O=C(NCCc1ccccc1)N1CCC(Nc2nccc(-c3c(-c4ccc(F)cc4)nc4occn34)n2)CC1 [Example 169, 4-({4-[6-(4-fluorophenyl)imidazo[2,1-b][1,3]oxazol-5-yl]pyrimidin-2-yl}amino)-N-(2-phenylethyl)piperidine-1-carboxamide] | 266 nM | 
5 | O=S(=O)(c1nnc[nH]1)N1CCC[C@@H](Nc2nccc(-c3c(-c4cccc(O)c4)nc4sccn34)n2)C1 [Example 381, 3-[5-(2-{[(3R)-1-(4H-1,2,4-tri-azol-3-ylsulfonyl)piperidin-3-yl]amino}pyrimidin-4-yl)imidazo[2,1-b][1,3]thiazol-6-yl]phenol] | 15 nM | 
6 | CCN1CCC(Nc2nccc(-c3c(-c4ccc(F)cc4)nc4sccn34)n2)CC1 [Example 154, N-(1-ethylpiperidin-4-yl)-4-[6-(4-fluorophenyl)imidazo[2,1-b][1,3]thiazol-5-yl]pyrimidin-2-amine] |  | inhibition at 10 µM (@ 10 uM): 36%
7 | O=C(c1cccc2cccnc12)N1CCC(Nc2nccc(-c3c(-c4ccc(F)cc4)nc4occn34)n2)CC1 [Example 161, 4-[6-(4-fluorophenyl)Imidazo[2,1-b][1,3]oxazol-5-yl]-N-[1-(quinolin-8-ylcarbonyl)piperidin-4-yl]pyrimidin-2-amine] | 1570 nM | 
8 | CCN(C)C(=O)N1CCC(Nc2nccc(-c3c(-c4ccc(F)cc4)nc4sccn34)n2)CC1 [Example 232, N-ethyl-4-({4-[6-(4-fluorophenyl)imidazo[2,1-b][1,3]thiazol-5-yl]pyrimidin-2-yl}amino)-N-methylpiperidine-1-carboxamide] |  | inhibition at 10 µM (@ 10 uM): 56%
9 | O=S(=O)(c1cccc(F)c1)N1CCC[C@@H](Nc2nccc(-c3c(-c4ccc(F)cc4)nc4occn34)n2)C1 [Example 52, 4-[6-(4-fluorophenyl)imi-dazo[2,1-b][1,3]oxazol-5-yl]-N-{(3R)-1-[(3-fluorophenyl)sulfonyl]piperidin-3-yl}pyr-imidin-2-amine] |  | inhibition at 10 µM: 55%
10 | COc1cccc(S(=O)(=O)N2CCC[C@@H](Nc3nccc(-c4c(-c5ccc(F)cc5)nc5occn45)n3)C2)c1 [Example 57, 4-[6-(4-fluorophenyl)imi-dazo[2,1-b][1,3]oxazol-5-yl]-N-{(3R)-1-[(3-methoxy-phenyl)sulfonyl]piperidin-3-yl}pyrimidin-2-amine] |  | inhibition at 10 µM: 34%
11 | COC(=O)N1CCC(Nc2nccc(-c3c(-c4cccc(O)c4)nc4sccn34)n2)CC1 [Example 394, methyl 4-({4-[6-(3-hydroxyphenyl)imidazo[2,1-b][1,3]thiazol-5-yl]pyrimidin-2-yl}amino)piperidine-1-carboxylate] | > 3000 nM | 
12 | Cc1ccc(S(=O)(=O)N2CCC[C@@H](Nc3nccc(-c4c(-c5ccc(F)cc5)nc5occn45)n3)C2)cc1 [Example 45, 4-[6-(4-fluorophenyl)imi-dazo[2,1-b][1,3]oxazol-5-yl]-N-{(3R)-1-[(4-methylphenyl)sulfonyl]piperidin-3-yl}pyr-imidin-2-amine] |  | IC50: 590 nM
13 | Cc1nc(S(=O)(=O)N2CCC[C@@H](Nc3nccc(-c4c(-c5ccc(F)cc5)nc5occn45)n3)C2)cn1C [Example 66, N-{(3R)-1-[(1,2-dimethyl-1H-imidazol-4-yl)sulfonyl]piper-idin-3-yl}-4-[6-(4-fluorophenyl)imidazo[2,1-b][1,3]oxazol-5-yl]pyrimidin-2-amine] |  | inhibition at 10 µM (@ 10 uM): 70%

Continued, in another order:

Row | IC50 (read-out: Mutant B-RAF IC50) | Structure (SMILES) | further results
14 | 316 nM | COc1cccc(-c2nc3sccn3c2-c2ccnc(NC3CCN(S(=O)(=O)c4ccc(CCC(=O)O)cc4)CC3)n2)c1 [Example 270, 3-(4-{[4-({4-[6-(3-methoxyphenyl)imidazo[2,1-b][1,3]thiazol-5-yl]pyrimidin-2-yl}amino)piperidin-1-yl]sulfonyl}phenyl)propanoic acid] | 
15 | 2 nM | O=S(=O)(c1ccc(Cl)cc1)N1CCC[C@@H](Nc2nccc(-c3c(-c4cccc(O)c4)nc4sccn34)n2)C1 [Example 288, 3-{5-[2-({(3R)-1-[(4-chlorophenyl)sulfonyl]piperidin-3-yl}amino)pyrimidin-4-yl]imidazo[2,1-b][1,3]thiazol-6-yl}phenol] | 
16 | 322 nM | Cc1cn2c(-c3ccnc(NC4CCN(S(=O)(=O)c5ccc(C(=O)O)cc5)CC4)n3)c(-c3ccc(F)cc3)nc2s1 [Example 258, 4-{[4-({4-[6-(4-fluorophenyl)-2-methylimidazo[2,1-b][1,3]thiazol-5-yl]pyrimidin-2-yl}amino)piperidin-1-yl]sulfonyl}benzoic acid] | 
17 | > 1000 nM | NC(=O)N1CCC(Nc2nccc(-c3c(-c4ccc(F)cc4)nc4occn34)n2)CC1 [Example 256, 4-({4-[6-(4-fluorophenyl)imidazo[2,1-b][1,3]oxazol-5-yl]pyrimidin-2-yl}amino)piperidine-1-carboxamide] | 
18 | 215 nM | CC(=O)Nc1cccc(-c2nc3sccn3c2-c2ccnc(N[C@@H]3CCCN(S(=O)(=O)c4ccc(Cl)cc4)C3)n2)c1 [Example 123, N-(3-{5-[2-({(3R)-1-[(4-chlorophenyl)sulfonyl]piperidin-3-yl}amino)pyrimidin-4-yl]imidazo[2,1-b][1,3]thiazol-6-yl}phenyl)acetamide] | 
19 | 18 nM | O=S(=O)(c1ccc(Cl)cc1)N1CCC[C@@H](Nc2nccc(-c3c(-c4cccc(/C=N\O)c4)nc4sccn34)n2)C1 [Example 395, 3-{5-[2-({(3R)-1-[(4-chlorophenyl)sulfonyl]piperidin-3-yl}amino)pyrimidin-4-yl]imidazo[2,1-b][1,3]thiazol-6-yl}benzaldehyde oxime] | 
20 | 33 nM | O=S(=O)(c1ccc(Cl)cc1)N1CCC[C@@H](Nc2nccc(-c3c(-c4ccccc4O)nc4sccn34)n2)C1 [Example 107, 2-{5-[2-({(3R)-1-[(4-chlorophenyl)sulfonyl]piperidin-3-yl}amino)pyrimidin-4-yl]imidazo[2,1-b][1,3]thiazol-6-yl}phenol] | 
21 | 696 nM | O=S(=O)(c1ccc(Cl)cc1)N1CCC(Nc2nccc(-c3c(-c4ccc(F)cc4)nc4sccn34)n2)CC1 [Example 255, N-{1-[(4-chlorophenyl)sulfonyl]piperidin-4-yl}-4-[6-(4-fluorophenyl)imidazo[2,1-b][1,3]thiazol-5-yl]pyrimidin-2-amine] | 
22 | 840 nM | O=C(O)c1ccc(-c2nc3sccn3c2-c2ccnc(N[C@@H]3CCCN(S(=O)(=O)c4ccc(Cl)cc4)C3)n2)cc1O [Example 133, 4-{5-[2-({(3R)-1-[(4-chlorophenyl)sulfonyl]piperidin-3-yl}amino)pyrimidin-4-yl]imidazo[2,1-b][1,3]thiazol-6-yl}-2-hydroxybenzoic acid] | 
